US12161722B2, “Bifunctional heterocyclic compound having BTK degradation function via ubiquitin proteasome pathway, and use thereof” (KOREA RESEARCH INSTITUTE OF CHEMICAL TECHNOLOGY, priority 2021, dated 2024)

Target: T1, WT BTK protein (Homo sapiens, UniProt Q06187)
T1 construct: measured for intracellular BTK protein levels by Western blotting; endogenous in cells; host or cells: TMD-8 or RAMOS cells
Assay: BTK protein degradation assay (Western blotting), WT BTK
Format: cell-based
Conditions: concentration range accounting for 50% degradation of WT BTK protein, TMD-8 or RAMOS cells, 24 hours
Method in brief: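 TMD-8 cells (1×10^6 cells/mL) treated 24 h with compound serial dilutions, then lysed in RIPA. Equal protein loads analysed by Western blot for BTK with GAPDH/β-actin as loading controls; activity binned by concentration giving 50% WT BTK degradation.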

T1 sequence (Q06187 whole entry): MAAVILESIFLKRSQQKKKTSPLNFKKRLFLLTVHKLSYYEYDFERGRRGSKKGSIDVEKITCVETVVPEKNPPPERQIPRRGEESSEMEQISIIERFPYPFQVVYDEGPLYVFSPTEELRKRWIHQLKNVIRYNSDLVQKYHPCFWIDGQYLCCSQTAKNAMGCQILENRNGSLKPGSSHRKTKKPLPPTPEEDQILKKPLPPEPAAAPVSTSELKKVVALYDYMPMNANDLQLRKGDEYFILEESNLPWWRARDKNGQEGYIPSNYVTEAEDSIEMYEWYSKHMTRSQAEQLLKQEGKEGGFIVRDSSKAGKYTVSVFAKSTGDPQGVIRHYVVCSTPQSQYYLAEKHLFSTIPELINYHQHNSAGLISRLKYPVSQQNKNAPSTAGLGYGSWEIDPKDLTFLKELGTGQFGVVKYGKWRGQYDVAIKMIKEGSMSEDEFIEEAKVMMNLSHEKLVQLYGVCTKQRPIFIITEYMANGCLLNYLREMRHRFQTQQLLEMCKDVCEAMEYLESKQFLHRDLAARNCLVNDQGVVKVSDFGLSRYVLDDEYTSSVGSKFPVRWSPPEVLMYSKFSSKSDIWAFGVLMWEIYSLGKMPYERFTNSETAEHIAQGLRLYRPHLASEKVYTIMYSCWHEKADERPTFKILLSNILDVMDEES

DC50	Compound
0.1 to 10 nM	Cc1cccc(C)c1Nc1nn(C)c2nc(Nc3ccc(N4CCN(CC5CN(c6ccc7c(c6)C(=O)N(C6CCC(=O)NC6=O)C7=O)C5)CC4)cc3)ncc12 (stereo not shown) [Compound 181, 5-(3-((4-(4-((3-((2,6-Dimethylphenyl)amino)-1-methyl-1H-pyrazolo[3,4-d]pyrimidin-6-yl)amino)phenyl)piperazin-1-yl)methyl)azetidin-1-yl)-2-(2,6-dioxopiperidin-3-yl)isoindoline-1,3-dione]
0.1 to 10 nM	Cc1cccc(C)c1Nc1nn(C)c2nc(Nc3ccc(C4CN(CC5CN(c6ccc7c(c6)C(=O)N(C6CCC(=O)NC6=O)C7=O)C5)C4)cc3)ncc12 (stereo not shown) [Compound 182, 5-(3-((3-(4-((3-((2,6-Dimethylphenyl)amino)-1-methyl-1H-pyrazolo[3,4-d]pyrimidin-6-yl)amino)phenyl)azetidin-1-yl)methyl)azetidin-1-yl)-2-(2,6-dioxopiperidin-3-yl)isoindoline-1,3-dione]
0.1 to 10 nM	Cc1cccc(C)c1Nc1nn(C)c2nc(Nc3ccc(N4CCN(CC5CN(c6ccc7c(c6)C(=O)N(C6CCC(=O)NC6=O)C7=O)C5)C[C@@H]4C)cc3)ncc12 (stereo partly drawn) [Compound 183, 5-(3-(((S)-4-(4-((3-((2,6-Dimethylphenyl)amino)-1-methyl-1H-pyrazolo[3,4-d]pyrimidin-6-yl)amino)phenyl)-3-methylpiperazin-1-yl)methyl)azetidin-1-yl)-2-(2,6-dioxopiperidin-3-yl)isoindoline-1,3-dione]
0.1 to 10 nM	Cc1cccc(C)c1Nc1nn(C)c2nc(Nc3ccc(N4CCN(CC5CN(c6ccc7c(c6)C(=O)N(C6CCC(=O)NC6=O)C7=O)C5)C[C@H]4C)cc3)ncc12 (stereo partly drawn) [Compound 184, 5-(3-(((R)-4-(4-((3-((2,6-Dimethylphenyl)amino)-1-methyl-1H-pyrazolo[3,4-d]pyrimidin-6-yl)amino)phenyl)-3-methylpiperazin-1-yl)methyl)azetidin-1-yl)-2-(2,6-dioxopiperidin-3-yl)isoindoline-1,3-dione]
0.1 to 10 nM	Cc1cccc(C)c1Nc1nn(C)c2nc(Nc3ccc(N4CCN(CC5CN(c6ccc7c(c6)C(=O)N(C6CCC(=O)NC6=O)C7=O)C5)[C@@H](C)C4)cc3)ncc12 (stereo partly drawn) [Compound 185, 5-(3-(((S)-4-(4-((3-((2,6-Dimethylphenyl)amino)-1-methyl-1H-pyrazolo[3,4-d]pyrimidin-6-yl)amino)phenyl)-2-methylpiperazin-1-yl)methyl)azetidin-1-yl)-2-(2,6-dioxopiperidin-3-yl)isoindoline-1,3-dione]
0.1 to 10 nM	Cc1cccc(C)c1Nc1nn(C)c2nc(Nc3ccc(N4CCN(CC5CN(c6ccc7c(c6)C(=O)N(C6CCC(=O)NC6=O)C7=O)C5)[C@H](C)C4)cc3)ncc12 (stereo partly drawn) [Compound 186, 5-(3-(((R)-4-(4-((3-((2,6-Dimethylphenyl)amino)-1-methyl-1H-pyrazolo[3,4-d]pyrimidin-6-yl)amino)phenyl)-2-methylpiperazin-1-yl)methyl)azetidin-1-yl)-2-(2,6-dioxopiperidin-3-yl)isoindoline-1,3-dione]
0.1 to 10 nM	Cc1cccc(C)c1Nc1nn(C)c2nc(Nc3ccc(N4CCN(CC5CN(c6ccc7c(n6)CN(C6CCC(=O)NC6=O)C7=O)C5)CC4)cc3)ncc12 (stereo not shown) [Compound 187, 3-(2-(3-((4-(4-((3-((2,6-Dimethylphenyl)amino)-1-methyl-1H-pyrazolo[3,4-d]pyrimidin-6-yl)amino)phenyl)piperazin-1-yl)methyl)azetidin-1-yl)-5-oxo-5,7-dihydro-6H-pyrrolo[3,4-b]pyridin-6-yl)piperidin-2,6-one]
0.1 to 10 nM	Cc1cccc(C)c1Nc1nn(C)c2nc(Nc3ccc(N4CCN(CC5CCN(c6ccc7c(n6)C(=O)N(C6CCC(=O)NC6=O)C7=O)CC5)CC4)cc3)ncc12 (stereo not shown) [Compound 188, 3-(2-(4-((4-(4-((3-((2,6-Dimethylphenyl)amino)-1-methyl-1H-pyrazolo[3,4-d]pyrimidin-6-yl)amino)phenyl)piperazin-1-yl)methyl)piperidin-1-yl)-5-oxo-5,7-dihydro-6H-pyrrolo[3,4-b]pyridin-6-yl)piperidin-2,6-one]
10 to 1000 nM	Cc1cccc(C)c1Nc1nn(C)c2nc(Nc3ccc4c(c3)CN(C(=O)Cc3cccc(NC5=CC(=O)N(C6CCC(=O)NC6=O)C5=O)c3)CC4)ncc12 (stereo not shown) [Compound 192, 3-(3-((3-(2-(7-((3-((2,6-Dimethylphenyl)amino)-1-methyl-1H-pyrazolo[3,4-d]pyrimidin-6-yl)amino)-3,4-dihydroisoquinolin-2 (1H)-yl)-2-oxoethyl)phenyl)amino)-2,5-dioxo-2,5-dihydro-1H-pyrrol-1-yl)piperidin-2,6-one]
0.1 to 10 nM	Cc1cccc(C)c1Nc1nn(C)c2nc(Nc3ccc4c(c3)CN(CC3CCN(C(=O)Cc5cccc(NC6=CC(=O)N(C7CCC(=O)NC7=O)C6=O)c5)CC3)CC4)ncc12 (stereo not shown) [Compound 193, 3-(3-((3-(2-(4-((7-((3-((2,6-Dimethylphenyl)amino)-1-methyl-1H-pyrazolo[3,4-d]pyrimidin-6-yl)amino)-3,4-dihydroisoquinolin-2 (1H)-yl)methyl)piperidin-1-yl)-2-oxoethyl)phenyl)amino)-2,5-dioxo-2,5-dihydro-1H-pyrrol-1-yl)piperidin-2,6-one]
10 to 1000 nM	Cc1cccc(C)c1Nc1nn(C)c2nc(Nc3ccc4c(c3)CN(C(=O)COc3ccc5c(c3)C(=O)N(C3CCC(=O)NC3=O)C5=O)CC4)ncc12 (stereo not shown) [Compound 194, 5-(2-(7-((3-((2,6-Dimethylphenyl)amino)-1-methyl-1H-pyrazolo[3,4-d]pyrimidin-6-yl)amino)-3,4-dihydroisoquinolin-2 (1H)-yl)-2-oxoethoxy)-2-(2,6-dioxopiperidin-3-yl)isoindoline-1,3-dione]
0.1 to 10 nM	Cc1cccc(Br)c1Nc1nn(C)c2nc(Nc3ccc4c(c3)CN(CC3CCN(c5ccc6c(c5)C(=O)N(C5CCC(=O)NC5=O)C6=O)CC3)CC4)ncc12 (stereo not shown) [Compound 195, 5-(4-((7-((3-((2-Bromo-6-methylphenyl)amino)-1-methyl-1H-pyrazolo[3,4-d]pyrimidin-6-yl)amino)-3,4-dihydroisoquinolin-2 (1H)-yl)methyl)piperidin-1-yl)-2-(2,6-dioxopiperidin-3-yl)isoindoline-1,3-dione]
10 to 1000 nM	Cc1cccc(C)c1Nc1nn(C)c2nc(Nc3ccc4c(c3)CN(C(=O)C3(NCC5CCN(c6ccc7c(c6)C(=O)N(C6CCC(=O)NC6=O)C7=O)CC5)CC3)CC4)ncc12 (stereo not shown) [Compound 199, 5-(4-(((1-(7-((3-((2,6-Dimethylphenyl)amino)-1-methyl-1H-pyrazolo[3,4-d]pyrimidin-6-yl)amino)-1,2,3,4-tetrahydroisoquinoline-2-carbonyl)cyclopropyl)amino)methyl)piperidin-1-yl)-2-(2,6-dioxopiperidin-3-yl)isoindoline-1,3-dione]
0.1 to 10 nM	Cc1cccc(C)c1Nc1nn(C)c2nc(Nc3ccc4c(c3)CN(CC3CCN(C5=CC(=O)N(C6CCC(=O)NC6=O)C5=O)CC3)CC4)ncc12 (stereo not shown) [Compound 201, 3-(3-(4-((7-((3-((2,6-dimethylphenyl)amino)-1-methyl-1H-pyrazolo[3,4-d]pyrimidin-6-yl)amino)-3,4-dihydroisoquinolin-2 (1H)-yl)methyl)piperidin-1-yl)-2,5-dioxo-2,5-dihydro-1H-pyrrol-1-yl)piperidin-2,6-one]
0.1 to 10 nM	Cc1cccc(C)c1Nc1nn(C)c2nc(Nc3ccc4c(c3)CN(CC3(NC(=O)C5CCN(c6ccc7c(c6)C(=O)N(C6CCC(=O)NC6=O)C7=O)CC5)CC3)CC4)ncc12 (stereo not shown) [Compound 204, N-(1-((7-((3-((2,6-dimethylphenyl)amino)-1-methyl-1H-pyrazolo[3,4-d]pyrimidin-6-yl)amino)-3,4-dihydroisoquinolin-2 (1H)-yl)methyl)cyclopropyl)-1-(2-(2,6-dioxopiperidin-3-yl)-1,3-dioxoisoindolin-5-yl)piperidine-4-carboxamide]
10 to 1000 nM	Cc1cccc(C)c1Nc1nn(C)c2nc(Nc3ccc4c(c3)CN(CC3(NC(=O)COc5ccc6c(c5)C(=O)N(C5CCC(=O)NC5=O)C6=O)CC3)CC4)ncc12 (stereo not shown) [Compound 205, N-(1-((7-((3-((2,6-dimethylphenyl)amino)-1-methyl-1H-pyrazolo[3,4-d]pyrimidin-6-yl)amino)-3,4-dihydroisoquinolin-2 (1H)-yl)methyl)cyclopropyl)-2-((2-(2,6-dioxopiperidin-3-yl)-1,3-dioxoisoindolin-5-yl)oxy)acetamide]
0.1 to 10 nM	Cc1cccc(C)c1Nc1nn(C)c2nc(Nc3ccc4c(c3)CN(CC3CCN(c5cc6c(cc5F)C(=O)N(C5CCC(=O)NC5=O)C6=O)CC3)CC4)ncc12 (stereo not shown) [Compound 208, 5-(4-((7-((3-((2,6-Dimethylphenyl)amino)-1-methyl-1H-pyrazolo[3,4-d]pyrimidin-6-yl)amino)-3,4-dihydroisoquinolin-2 (1H)-yl)methyl)piperidin-1-yl)-2-(2,6-dioxopiperidin-3-yl)-6-fluoroisoindoline-1,3-dione]
0.1 to 10 nM	Cc1cccc(C)c1Nc1nn(C)c2nc(Nc3ccc4c(c3)CN(CC3CCN(C(=O)C5CCN(c6cc7c(cc6F)C(=O)N(C6CCC(=O)NC6=O)C7=O)CC5)CC3)CC4)ncc12 (stereo not shown) [Compound 210, 5-(4-(4-((7-((3-((2,6-Dimethylphenyl)amino)-1-methyl-1H-pyrazolo[3,4-d]pyrimidin-6-yl)amino)-3,4-dihydroisoquinolin-2 (1H)-yl)methyl)piperidine-1-carbonyl)piperidin-1-yl)-2-(2,6-dioxopiperidin-3-yl)-6-fluoroisoindoline-1,3-dione]
0.1 to 10 nM	Cc1cccc(C)c1Nc1nn(C)c2nc(Nc3ccc4c(c3)CN(CC3CCN(C(=O)CNc5cc6c(cc5F)C(=O)N(C5CCC(=O)NC5=O)C6=O)CC3)CC4)ncc12 (stereo not shown) [Compound 211, 5-((2-(4-((7-((3-((2,6-Dimethylphenyl)amino)-1-methyl-1H-pyrazolo[3,4-d]pyrimidin-6-yl)amino)-3,4-dihydroisoquinolin-2 (1H)-yl)methyl)piperidin-1-yl)-2-oxoethyl)amino)-2-(2,6-dioxopiperidin-3-yl)-6-fluoroisoindoline-1,3-dione]
